{"source": "patent US9289445B2", "about": "“Compositions and methods for treating or preventing a retrovirus infection” (University of Rochester, priority 2011, dated 2016)", "key": {"HIV-1 RT [1]": {"biological_target": "T1, HIV-1 RT (Human immunodeficiency virus type 1 group M subtype B, UniProt P04585)", "T1 construct": "Pre-Steady State Kinetic Parameters of HIV-1 RT for dTTP/dUTP", "experiment": "Single nucleotide extension at macrophage nucleotide concentrations", "format": "biochemical", "details": "rNTP alone at macrophage concentration", "description": "FIGS. 4A-4E compare the dNTP and rNTP incorporation rates of HIV-1 RT at nucleotide concentrations found in human macrophages. Incorporation kinetics of HIV-1 RT (green circle) for individual dNTPs and rNTPs at their concentrations found in macrophages (see Table 1) were compared by single nucleotide extension reactions. FIG. 4A is a gel showing a representative time-course reaction set for dATP alone, ATP alone, or both dATP and ATP at their macrophage concentrations. P: unextended 17-mer primer, E: extended 18-mer product. and C: no RT control. FIG. 4B includes graphs. The percentages of the primer extension at early time points were plotted to compare the incorporation rate for each dNTP or rNTP alone as well as for dNTPs and rNTPs at their macrophage concentrations. FIG. 4C is a gel showing a time-course reaction. Identical reactions were conducted with SIVagm Sab-1 RT. FIG. 4D is a table showing the steady state Km values of HIV-1 RT to rNTPs determined by single nucleotide incorporation assays. FIG. 4E is a graph comparing rNTP concentrations (black bars) of macrophages and PBMCs and the Km values (red zone) of HIV-1 RT to rNTPs. Grey bars: average concentrations of dNTPs of the two target cell types obtained from Table 1.\nThe incorporation kinetics for individual dNTPs and rNTPs by retrovirus RT at the concentrations found in non-dividing cells were assessed. For this, a primer extension reaction similar to that used in FIG. 3C was employed, except nucleotide specific primers and a single dNTP, rNTP, or both were used to estimate individual nucleotide incorporation rates. […] Upon combining dNTPs and rNTPs in a reaction (FIGS. 4A and B, purple dotted lines), the total single nucleotide extension rate appeared to be elevated as compared to the rates of either dNTP (red line) or rNTP alone. When primer extension products were plotted by time, primer extension was accelerated in the presence of both dNTPs and rNTPs at their macrophage concentrations as compared to the reactions containing either dNTPs or rNTPs alone. The results of this single nucleotide assay are consistent with the data from the multiple nucleotide incorporation assay (FIG. 3C)."}, "FIV RT": {"biological_target": "FIV RT (Feline immunodeficiency virus, UniProt P16088)", "experiment": "Steady state kinetics of reverse transcriptase for dTTP/dUTP", "format": "biochemical", "protocol": "(§1) Retrovirus RT was assessed for its ability to incorporated dTTP and dUTP at physiologically relevant concentrations. First, Km of HIV-1 RT, SIV RT, MuLV RT, and FIV RT for both dTTP and dUTP was measured.\n(§2) All primer extension reactions were analyzed with urea denaturing 10-16% PAGE gels and scanned with a phosphoimager (Biorad, Hercules, Calif.) and quantified with the Biorad Quantity One software. Nonlinear regression analysis was done with Kaleida Graph (Synergy Software, Reading, Pa.). Rates were determined with a single exponential, and Michaelis Menten fits were completed as previously described in Kennedy et al. Biochemistry 48:11161-11168 (2009)."}, "MuLV RT": {"biological_target": "MuLV RT (Moloney murine leukemia virus, UniProt P03355)", "experiment": "Steady state kinetics of reverse transcriptase for dTTP/dUTP", "format": "biochemical", "protocol": "as §1, §2"}, "HIV-1 RT [2]": {"biological_target": "T1, HIV-1 RT", "experiment": "Steady state kinetics of reverse transcriptase for dTTP/dUTP", "format": "biochemical", "protocol": "as §1\nThe single nucleotide incorporation reactions were conducted using 20 nM template/primers (40mer RNA template annealed to Primer A, Ext-T primer, Ext-G primer, or Ext-C primer) and 20 nM RT in 1× reaction buffer for 5 minutes at varying concentrations of NTP. Reactions were performed in triplicate.\nas §2"}, "HIV-1 RT [3]": {"biological_target": "T1, HIV-1 RT", "experiment": "Pre-steady state quench flow titrations for dTTP and dUTP", "format": "biochemical", "protocol": "To confirm that selectivity is not pronounced during the binding or isomerization steps of polymerization, pre-steady state quench flow titrations for dTTP and dUTP were performed with HIV-1 RT."}, "SIVagm Sab1 RT": {"system": "SIVagm Sab1 RT", "experiment": "Steady state kinetics of reverse transcriptase for dTTP/dUTP", "format": "biochemical, simian immunodeficiency virus (SIVagm Sab)", "details": "SIV RT", "protocol": "as §1, §2"}, "HIV-1 RT [4]": {"biological_target": "T1, HIV-1 RT", "experiment": "Primer extension followed by E. coli UNG2 digestion (dUTP incorporation)", "format": "biochemical", "protocol": "FIG. 8A includes a schematic of a coupled RT extension reaction UNG2 digestion assay and a gel. RT was incubated with i) the dNTP concentrations found in macrophages or PBMCs, and ii) either the dUTP concentration for those cells types or ddH20. These reactions were quenched with EDTA and subjected to E. Coli UNG2 digestion, followed by 95° C. incubation and UREA PAGE gel electrophoresis. The digested bands (*) were quantified and plotted relative to total unextended and extended products. […] FIG. 8C includes a gel showing the results of single nucleotide extension reactions of HIV-1 RT with dTTP and dUTP concentrations found in macrophages. […] The rates of product formation for dTTP (black line), dUTP (blue line), and both dTTP and dUTP (green line) were plotted.\nHIV-1 RT mediated DNA synthesis in nucleotide pools found in dividing and non-dividing cells was further assessed using a primer extension assay followed by E. coli UNG2 digestion to quantify the amount of dUTP incorporated under these condition (FIG. 8). The presence of a […] band at the first dTTP/dUTP incorporation site was used to monitor the fraction of DNAs that contained a dUTP following UNG digestion (see * in FIG. 8). […] The single nucleotide extension assays were performed to compare the rate of incorporation dTTP, dUTP, or both nucleotides at concentrations found in non-dividing cells. […]"}, "[5]": {"system": "HIV-1 vector (DHIV-GFP) in activated CD4+ T cells", "experiment": "HIV-GFP vector transduction of activated CD4+ T cells (GFP FACS)", "format": "cell-based", "details": "ddUTP, CD4+ T cells", "quoted_text": "Next, rACT was evaluated for its ability to inhibit HIV-1 replication in non-dividing cells. The transduction efficiency of an HIV-1 vector in primary human macrophages in the presence and absence of rACT was measured. Human macrophages, which were prepared from multiple donors, were pre-incubated with various concentrations of rACT, and then transduced with an HIV vector (D3-GFP), which expressed all HIV-1 proteins except Env and Nef (replaced with eGFP). Virus infectivity was determined by FACS analysis for GFP expression at 7 days post infection. […] Finally, the effect of rACT on HIV-1 infection in activated CD4^+ T cells was examined.\n(§3) Dideoxy uracil triphosphate (ddUTP) was assessed for its ability to inhibit viral reverse transcription in non-dividing cells. Primary human macrophages and CD4^+ T-cells were isolated from human buffy coats and pretreated with ddUTP. The treated cells were then transduced with a single round of VSV-G pseudotyped HIV-1 vector D3-HIV in the presence of various concentrations of drug.\nrACT was tested in T cells as follows, human primary activated CD4^+ T cells (2.5×10^5) cells isolated from two donors were pre-treated with 0, 0.1, and 1 mM rACT for 4 hours, and then the cells were transduced with DHIV-GFP. The transduced cells were fixed at 48 hours post transduction, and analyzed by FACS for determining the percent of GFP cells. […]"}, "[6]": {"system": "HIV-1 vector (D3-GFP) in primary human macrophages", "experiment": "HIV-GFP vector transduction of primary macrophages (GFP FACS)", "format": "cell-based", "details": "ddUTP pretreated macrophages, flow cytometry", "quoted_text": "Human primary macrophages were preincubated with different concentrations of rACT (0, 10, 100 and 100 μM) for 24 hours and then transduced with HIV-GFP vector (equal p24 amounts). The percentages of GFP positive macrophages and PI positive cells in a representative donor, which were determined by FACS at 7 days post transduction, are shown. […] These experiments were performed in triplicate from three different blood donors.\nPrimary human macrophages were pretreated with ddUTP and transduced with a single round VSV-G pseudotyped HIV-1 vector (D3HIV). […] FIG. 10B is a graph showing the results from flow cytometry analysis of the transduced cells.\nNext, rACT was evaluated for its ability to inhibit HIV-1 replication in non-dividing cells. The transduction efficiency of an HIV-1 vector in primary human macrophages in the presence and absence of rACT was measured. Human macrophages, which were prepared from multiple donors, were pre-incubated with various concentrations of rACT, and then transduced with an HIV vector (D3-GFP), which expressed all HIV-1 proteins except Env and Nef (replaced with eGFP). Virus infectivity was determined by FACS analysis for GFP expression at 7 days post infection.\nDideoxy uracil triphosphate (ddUTP) was assessed for its ability to inhibit viral reverse transcription in non-dividing cells. […]"}, "[7]": {"system": "HIV-1 2-LTR DNA circles (proviral DNA synthesis) in macrophages", "experiment": "Quantitative 2LTR circle PCR in transduced macrophages", "format": "cell-based", "details": "ddUTP treated cells", "quoted_text": "Human macrophages, which were prepared from multiple donors, were pre-incubated with various concentrations of rACT, and then transduced with an HIV vector (D3-GFP), which expressed all HIV-1 proteins except Env and Nef (replaced with eGFP).\nas §3\nEqual p24 level of the produced vector was used for infecting human macrophages pre-incubated with different concentrations of rACT (RI Chemicals, CA) for 12 hours. For ddUTP, the produced vector was pre-incubated for at least two hours. One half of the harvested cells were used for determining the percentages of the GFP expressing and/or propidium iodide (PI) stained cells by FACS at 7 days post infection. All cells used to asses transduction efficiency were gated or stained with propidium iodide to assure live cells were measured. The remaining cells were used for the extraction of genomic DNA. Quantitative 2LTR circle PCR assay using real-time PCR was normalized by total genomic DNA (Biorad, Hercules, Calif.)."}, "[8]": {"system": "primary human macrophages", "quoted_text": "The treated cells were then transduced with a single round of VSV-G pseudotyped HIV-1 vector D3-HIV in the presence of various concentrations of drug.\nThe purified human monocytes from three different donors were differentiated to macrophages as described previously, and D3HIV-GFP vector system expressing GFP, was also prepared as previously described in Jamburuthugoda et al. J. Biol. Chem. 281:13388-13395 (2006); Diamond et al. J. Biol. Chem. 279:51545-51553 (2004); Jamburuthugoda et al. J. Biol. Chem. 283:9206-9216 (2008); and Weiss et al. Biochemistry 43:4490-4500 (2004). […] One half of the harvested cells were used for determining the percentages of the GFP expressing and/or propidium iodide (PI) stained cells by FACS at 7 days post infection. All cells used to asses transduction efficiency were gated or stained with propidium iodide to assure live cells were measured."}}}
{"smiles": "Nc1ncnc2c1ncn2[C@@H]1O[C@H](COP(=O)(O)OP(=O)(O)OP(=O)(O)O)[C@@H](O)[C@H]1O", "note": "[ATP]", "values": [{"measurement": "rNTP incorporation by HIV-1 RT", "setting": "HIV-1 RT [1]", "value": "efficiently"}]}
{"smiles": "Nc1ccn([C@@H]2O[C@H](COP(=O)(O)OP(=O)(O)OP(=O)(O)O)[C@@H](O)[C@H]2O)c(=O)n1", "note": "[CTP]", "values": [{"measurement": "rNTP incorporation by HIV-1 RT", "setting": "HIV-1 RT [1]", "value": "efficiently"}]}
{"smiles": "Nc1nc2c(ncn2[C@@H]2O[C@H](COP(=O)(O)OP(=O)(O)OP(=O)(O)O)[C@@H](O)[C@H]2O)c(=O)[nH]1", "note": "[GTP]", "values": [{"measurement": "rNTP incorporation by HIV-1 RT", "setting": "HIV-1 RT [1]", "value": "less efficiently"}]}
{"smiles": "O=c1ccn([C@@H]2O[C@H](COP(=O)(O)OP(=O)(O)OP(=O)(O)O)[C@@H](O)[C@H]2O)c(=O)[nH]1", "note": "[UTP]", "values": [{"measurement": "rNTP incorporation by HIV-1 RT", "setting": "HIV-1 RT [1]", "value": "less efficiently"}]}
{"smiles": "Cc1cn([C@H]2C[C@H](O)[C@@H](COP(=O)(O)OP(=O)(O)OP(=O)(O)O)O2)c(=O)[nH]c1=O", "note": "[dTTP]", "values": [{"measurement": "Km", "setting": "FIV RT", "value": "0.0586 ± 0.0066", "unit": "µM"}, {"measurement": "Selectivity (dTTP/dUTP)", "setting": "FIV RT", "value": 3.754}, {"measurement": "Km", "setting": "MuLV RT", "value": "0.0504 ± 0.022", "unit": "µM"}, {"measurement": "Selectivity (dTTP/dUTP)", "setting": "MuLV RT", "value": 4.969}, {"measurement": "Km", "setting": "HIV-1 RT [2]", "value": "0.0218 ± 0.0028", "unit": "µM"}, {"measurement": "Selectivity (dTTP/dUTP)", "setting": "HIV-1 RT [2]", "value": 1.298}, {"measurement": "Kd", "setting": "HIV-1 RT [3]", "value": "3.4 ± 0.62", "unit": "µM"}, {"measurement": "Kpol", "setting": "HIV-1 RT [3]", "value": "85.72 ± 7.3", "unit": "S^−1"}, {"measurement": "Selectivity", "setting": "HIV-1 RT [3]", "value": 1.0}, {"measurement": "kpol/kd", "setting": "HIV-1 RT [3]", "value": 25, "unit": "μM^−1 S^−1"}, {"measurement": "Km", "setting": "SIVagm Sab1 RT", "value": "0.0184 ± 0.0043", "unit": "µM"}, {"measurement": "Selectivity (dTTP/dUTP)", "setting": "SIVagm Sab1 RT", "value": 0.839}]}
{"smiles": "O=c1ccn([C@H]2C[C@H](O)[C@@H](COP(=O)(O)OP(=O)(O)OP(=O)(O)O)O2)c(=O)[nH]1", "note": "[dUTP]", "values": [{"measurement": "dUTP incorporation, fraction of all synthesized DNA", "setting": "HIV-1 RT [4]; dUTP and dNTP levels found in non-dividing cells", "value": "⅓"}, {"measurement": "dUTP incorporation, non-dividing versus dividing cell environment", "setting": "HIV-1 RT [4]; non-dividing compared to dividing cell environment", "value": "approximately 5 fold"}, {"measurement": "Km", "setting": "FIV RT", "value": "0.18 ± 0.0045", "unit": "µM"}, {"measurement": "Km", "setting": "MuLV RT", "value": "0.253 ± 0.0521", "unit": "µM"}, {"measurement": "Km", "setting": "HIV-1 RT [2]", "value": "0.0277 ± 0.007", "unit": "µM"}, {"measurement": "Kd", "setting": "HIV-1 RT [3]", "value": "5.1 ± 1.93", "unit": "µM"}, {"measurement": "Kpol", "setting": "HIV-1 RT [3]", "value": "194.39 ± 30.0", "unit": "S^−1"}, {"measurement": "Selectivity", "setting": "HIV-1 RT [3]", "value": 1.52}, {"measurement": "kpol/kd", "setting": "HIV-1 RT [3]", "value": 38, "unit": "μM^−1 S^−1"}, {"measurement": "Km", "setting": "SIVagm Sab1 RT", "value": "0.017 ± 0.0035", "unit": "µM"}]}
{"smiles": "O=c1ccn([C@H]2CC[C@@H](COP(=O)(O)OP(=O)(O)OP(=O)(O)O)O2)c(=O)[nH]1", "note": "[ddUTP, Dideoxy uracil triphosphate]", "values": [{"measurement": "reduction in transduction efficiency", "setting": "[5]", "value": "Little or no reduction in transduction efficiency"}, {"measurement": "inhibition of transduction (eGFP positive live macrophages)", "setting": "[6]", "value": "dose dependent inhibition of transduction"}, {"measurement": "2LTR circles (QT-PCR)", "setting": "[7]", "value": "2LTR circles accumulated in the cells treated with higher concentrations of drug"}, {"measurement": "cell death", "setting": "[8]", "value": "little cell death"}]}
